Laboratory results from PMC7828447, “Design, Synthesis and Biological Evaluation of Arylpyridin-2-yl Guanidine Derivatives and Cyclic Mimetics as Novel MSK1 Inhibitors. An Application in an Asthma Model” (Molecules, 2021).

Experiments:
[1] = molecular target: T1, human synthetic MSK1 (14-438-K, Millipore) (Homo sapiens, UniProt O75582); assay: MSK1 enzymatic inhibition assay (Kinase-Glo luminescence); format: biochemical; settings: for inhibition at 1 µM: compound at 1 µM, read-out: MSK1 % Inhibition 1 µM; for inhibition at 10 µM: compound at 10 µM, read-out: MSK1 % Inhibition 10 µM
T1 construct: purchased Millipore 14-438-K
T1 sequence (O75582 whole entry): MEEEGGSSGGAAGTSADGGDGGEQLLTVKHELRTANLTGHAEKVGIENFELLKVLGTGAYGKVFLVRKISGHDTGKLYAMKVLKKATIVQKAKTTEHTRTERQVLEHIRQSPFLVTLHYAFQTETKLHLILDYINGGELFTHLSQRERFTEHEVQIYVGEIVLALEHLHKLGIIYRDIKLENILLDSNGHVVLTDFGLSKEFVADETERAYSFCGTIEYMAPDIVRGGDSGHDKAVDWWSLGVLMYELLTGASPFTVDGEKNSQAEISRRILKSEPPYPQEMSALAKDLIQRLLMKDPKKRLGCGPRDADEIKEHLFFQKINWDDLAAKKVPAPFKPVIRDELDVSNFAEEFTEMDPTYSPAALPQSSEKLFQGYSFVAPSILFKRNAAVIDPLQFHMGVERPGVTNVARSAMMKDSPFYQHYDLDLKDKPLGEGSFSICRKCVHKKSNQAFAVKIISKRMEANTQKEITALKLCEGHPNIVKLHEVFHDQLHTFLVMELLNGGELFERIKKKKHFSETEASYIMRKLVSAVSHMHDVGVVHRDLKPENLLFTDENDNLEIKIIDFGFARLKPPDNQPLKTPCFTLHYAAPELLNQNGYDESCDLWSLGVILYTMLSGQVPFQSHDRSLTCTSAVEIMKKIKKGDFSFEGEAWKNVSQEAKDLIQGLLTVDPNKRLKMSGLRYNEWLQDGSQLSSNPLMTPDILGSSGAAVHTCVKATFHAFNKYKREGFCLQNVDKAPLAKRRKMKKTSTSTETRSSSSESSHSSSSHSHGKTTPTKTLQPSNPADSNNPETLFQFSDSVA
Method: All results are summarized in Table 1, Table 2, Table 3, Table 4 and Table 5 and on Figure 4. […]
An orthogonal luminescence-based assay Kinase-Glo® (Promega, Madison, WI, USA) was used to validate the hits, quantifying the amount of the remaining ATP in the solution following the kinase reaction. Enzymatic reactions were performed up to 4h at room temperature in presence of 3 µM ATP. All compounds were tested in quadruplicates at 1 µM and 10 µM. […] Luminescence was measured with EnVision Plate Reader (Perkin Elmer).

[2] = WST-1 cytotoxicity test (cell viability); settings: human, human pulmonary (lung) fibroblasts
Method: (§1) A WST1 (Roche) reagent assay was used to determine the cytotoxicity of compounds at 24 h of incubation. […] The absorbance was measured at 450 nm.

[3] = tested on: human pulmonary fibroblasts; assay: WST-1 cytotoxicity test (cell viability); settings: WST-1, concentrations up to 30 µM
Method: as §1

IL-6 production = assay: Inhibition of IL-6 production (ELISA) in IL-1β-stimulated primary human lung fibroblasts; settings: Homo sapiens, Fibroblast; for inhibition at 10 µM: read-out: Il-6 % Inhibition 10 µM; for inhibition at 30 µM: read-out: Il-6 % Inhibition 30 µM
Method: Primary human lung fibroblasts were cultured in DMEM/F-12 medium (Gibco Waltham, MA, USA) complemented with 10% fetal bovine serum (Gibco), penicillin (50 U/mL, Gibco), streptomycin (50 µg/mL, Gibco), L-glutamine (2 mM, Gibco), non-essential amino acids (0.1 mM, Gibco) and insulin (0.12 U/mL, Lilly, Indianapolis, IN, USA) Cells were used at passage 7.

Balb/C mice = assay: OVA-induced asthma model, inflammatory cell recruitment in BAL; format: in vivo; settings: vs vehicle-treated OVA mice
Method: We decided to use this compound in vivo together with our newly synthesized compound 49d.
Animal experimentation was conducted in accordance with the European Communities Council Directive of 24 November 1986 (86/609/EEC) and the French ministry with the approval of the Regional Ethics Committee for animal research at the Strasbourg University (Authorization number 2015080309399690). Nine week-old male Balb/c mice (Janvier) were sensitized on days 0 and 7 by i.p. injection of ovalbumin (OVA, 50 μg, grade V, Sigma-Aldrich) adsorbed on aluminium hydroxide (2 mg, Sigma-Aldrich) in PBS. Mice were challenged intranasally (i.n.) with OVA (10 μg) in 25 μL of saline on days 18–21. Control mice received i.n. administrations of saline alone. Mice received compound (10 or 30 mg/kg) in saline solution with DMSO 5% or vehicle (saline, DMSO 5%) administered i.p. 2 h before each saline or OVA challenge. Collection of the bronchoalveolar lavage (BAL) fluid was performed 24 h after the last OVA challenge. Cell counts were assessed by flow cytometry (LSRII® cytometer, BD bioscience). BAL cells were added with FCblock (5 μL, 553142, BD bioscience) in a black microplate, incubated for 20 min at room temperature. Then, marker antibodies were added: CD45-AlexaFluor700 (103128, BioLegend, San Diego, CA, USA), CD11b-APC-Cy7 (557657, BD bioscience), CD11c-FITC (557400, BD bioscience, Franklin Lakes, NJ, USA), Gr-1-Pe-eFluor610 (61-5931-82, eBioscience). Antibodies were incubated for 30 min before DAPI (5 μL, BD bioscience) addition, and flow cytometry was performed immediately. Eosinophils were selected by CD45^+, CD11b^+, CD11C^- and GR-1^- gating.

[4] = 10 mg/kg i.p. 2 h before each OVA challenge
[5] = 30 mg/kg i.p. 2 h before each OVA challenge

SMILES | inhibition at 1 µM ([1]; ± Standard Deviation (n = 4)) | inhibition at 10 µM ([1]; ± Standard Deviation (n = 4)) | fold more potent MSK1 inhibitor compared to the parent compound ([1]; versus parent compound 1a) | IC50 ([1]; ± Standard Deviation (n = 4), 8 concentrations 0.03-100 µM, read-out: MSK1 IC50) | viability at 24 h, 10 µM [2] | viability at 24 h, 30 µM [2] | cytotoxicity (in words) [3] | inhibition at 10 µM (IL-6 production) | inhibition at 30 µM (IL-6 production) | inhibition of B cell infiltration in BAL (Balb/C mice; [4]) | inhibition of eosinophil infiltration in BAL (Balb/C mice; [4]) | inhibition of total cell infiltration in BAL (Balb/C mice; [4]) | IC50 (IL-6 production; read-out: Il-6 IC50 (µM), IL-1β stimulation, 0.3-30 µM, n = 4) | decrease of B cells infiltration in BAL (Balb/C mice; [5]) | decrease of eosinophil infiltration in BAL (Balb/C mice; [5]) | decrease of total cell infiltration in BAL (Balb/C mice; [5])
Br.Nc1nc2c(-c3ccccc3Cl)cccc2[nH]1 [Compound 49d, 4-(2-Chlorophenyl)-1H-benzo[d]imidazol-2-amine Hydrobromide] | 21 ± 5% | 71 ± 7% | 10 fold | 1600 ± 100 nM | 85 ± 13% | 76 ± 12% | non-cytotoxic | 39 ± 15% | 57 ± 2% | 47 ± 1% | 39 ± 3% | 33 ± 3% |  |  |  | 
O=C1NCCc2[nH]c(-c3ccncc3)cc21 [PHA767491, reference compound] | 72 ± 5% | 94 ± 4% |  |  | 95 ± 9% | 87 ± 7% |  | 97 ± 1% | 98 ± 2% |  |  |  | 1 ± 0.1 µM | 68 ± 7% | 57 ± 7% | 51 ± 6%
